Results reported in patent US11028051B2, “Tetrahydroquinoline-based bromodomain inhibitors” (St. Jude Children's Research Hospital, priority 2016, dated 2021).

Legend:
Experiment in all cases: competitive TR-FRET assay, BET-BD with acetylated peptide ligand
Assay type in all cases: binding
BRD2-BD1 = BRD2-BD1 (Homo sapiens (Human), UniProt P25440); settings: BRD2-BD1; Table 11 additional modifications; read-out: 2.1 EC50
Description: (§1) Inhibitor potency was determined using a competitive TR-FRET assay as detailed herein, measuring interaction of the respective BET-BD with an acetylated peptide ligand (Table 2).

BRD2-BD2 = BRD2-BD2 (Homo sapiens (Human), UniProt P25440); settings: for EC50: BRD2-BD2, Table 11 additional modifications, read-out: 2.2 EC50; for 2.1/2.2: ratio of BRD2-BD1 EC50 to BRD2-BD2 EC50 (selectivity)
Chain of BRD2-BD2 (P25440 344-453): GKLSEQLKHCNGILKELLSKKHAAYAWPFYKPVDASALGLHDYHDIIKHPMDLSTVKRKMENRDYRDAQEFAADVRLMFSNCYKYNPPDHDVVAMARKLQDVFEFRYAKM
Description: as §1

BRD3-BD1 = BRD3-BD1 (Homo sapiens (Human), UniProt Q15059); settings: BRD3-BD1; Table 11 additional modifications; read-out: 3.1 EC50
Chain of BRD3-BD1 (Q15059 34-140): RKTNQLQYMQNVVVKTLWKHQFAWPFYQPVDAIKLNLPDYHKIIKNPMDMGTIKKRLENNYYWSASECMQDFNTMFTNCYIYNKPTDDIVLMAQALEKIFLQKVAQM
Description: as §1

BRD4-BD1 = BRD4-BD1 (Homo sapiens (Human), UniProt O60885); settings: BRD4-BD1; Table 11 additional modifications; read-out: 4.1 EC50
Description: as §1

BRD4-BD2 = BRD4-BD2 (Homo sapiens (Human), UniProt O60885); settings: BRD4-BD2; Table 11 additional modifications; read-out: 4.2 EC50
Description: as §1

BRDT = BRDT (Homo sapiens, UniProt Q58F21); settings: BRDT; Table 11 additional modifications; read-out: BRDT EC50
Description: as §1

Chain of BRD2-BD1 (P25440 74-180): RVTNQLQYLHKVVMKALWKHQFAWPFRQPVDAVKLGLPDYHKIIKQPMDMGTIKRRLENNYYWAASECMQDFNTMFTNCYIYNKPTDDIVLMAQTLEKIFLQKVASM

Question: Which EC50 (BRD2-BD1) does the source give for `CC(=O)N1c2ccc(-c3cccc(N)c3)cc2[C@H](NC(=O)OC(C)C)C[C@@H]1C` [compound 2] here?
Answer: The EC50 was 730 nM.

Question: And the EC50 (BRD2-BD2)?
Answer: The EC50 was 110 nM.

Question: And the 2.1/2.2 (BRD2-BD2)?
Answer: The 2.1/2.2 was 6.6.

Question: What about the EC50 (BRD3-BD1) of the same compound?
Answer: The EC50 was 250 nM.

Question: And the EC50 (BRD4-BD1)?
Answer: Its EC50 is 1880 nM.

Question: What about the EC50 (BRD4-BD2) of the same compound?
Answer: Its EC50 is 640 nM.

Question: How did the EC50 (BRD2-BD1) turn out when `COc1cccc(-c2ccc3c(c2)[C@H](NC(=O)OC(C)C)C[C@H](C)N3C(C)=O)c1` [compound 3] was run?
Answer: Its EC50 is 5800 nM.

Question: What about the EC50 (BRD2-BD2) of the same compound?
Answer: The EC50 was 850 nM.

Question: And the 2.1/2.2 (BRD2-BD2)?
Answer: Its 2.1/2.2 is 6.8.

Question: And the EC50 (BRD3-BD1)?
Answer: The EC50 was 2300 nM.

Question: What about the EC50 (BRD4-BD1) of the same compound?
Answer: Its EC50 is over 67800 nM.

Question: What about the EC50 (BRD4-BD2) of the same compound?
Answer: The EC50 was over 67800 nM.

Question: `CC(=O)N1c2ccc(-c3ccc(N(C)C)cc3)cc2[C@H](NC(=O)OC(C)C)C[C@@H]1C` [compound 57] was tested. Which EC50 (BRD2-BD1) did it give?
Answer: The EC50 was 1500 nM.

Question: And the EC50 (BRD2-BD2)?
Answer: Its EC50 is 790 nM.

Question: What about the 2.1/2.2 (BRD2-BD2) of the same compound?
Answer: The 2.1/2.2 was 1.9.

Question: And the EC50 (BRD3-BD1)?
Answer: The EC50 was 1400 nM.

Question: And the EC50 (BRD4-BD1)?
Answer: The EC50 was 2900 nM.

Question: What about the EC50 (BRD4-BD2) of the same compound?
Answer: The EC50 was 730 nM.

Question: `CC(=O)N1c2ccc(-c3cccc([N+](=O)[O-])c3)cc2[C@H](NC(=O)OC(C)C)C[C@@H]1C` [compound 58] was tested. Which EC50 (BRD2-BD1) did it give?
Answer: Its EC50 is 7700 nM.

Question: And the EC50 (BRD2-BD2)?
Answer: The EC50 was 1100 nM.

Question: And the 2.1/2.2 (BRD2-BD2)?
Answer: Its 2.1/2.2 is 7.0.

Question: And the EC50 (BRD3-BD1)?
Answer: Its EC50 is 5200 nM.

Question: What about the EC50 (BRD4-BD1) of the same compound?
Answer: Its EC50 is over 96000 nM.

Question: What about the EC50 (BRD4-BD2) of the same compound?
Answer: Its EC50 is 6200 nM.

Question: For `CC(=O)Nc1cccc(-c2ccc3c(c2)[C@H](NC(=O)C(C)C)C[C@H](C)N3C(C)=O)c1` [compound 65], which 2.1/2.2 (BRD2-BD2) is on record?
Answer: Its 2.1/2.2 is 1.4.

Question: And the EC50 (BRD4-BD2)?
Answer: Its EC50 is 7800 nM.

Question: How did the 2.1/2.2 (BRD2-BD2) turn out when `CC(=O)Nc1cccc(-c2ccc3c(c2)[C@H](NC(=O)C(C)C)C[C@H](C)N3C(C)=O)c1` [compound 71] was run?
Answer: Its 2.1/2.2 is 4.9.

Question: What about the EC50 (BRD4-BD2) of the same compound?
Answer: The EC50 was 11000 nM.

Question: Which EC50 (BRD2-BD1) does the source give for `CCCOc1cccc(-c2ccc3c(c2)[C@H](Nc2ccccc2OC(F)(F)F)C[C@H](C)N3C(C)=O)c1` [compound 167] here?
Answer: The EC50 was over 70000 nM.

Question: What about the EC50 (BRD2-BD2) of the same compound?
Answer: The EC50 was 2100 nM.

Question: And the 2.1/2.2 (BRD2-BD2)?
Answer: The 2.1/2.2 was 16.

Question: What about the EC50 (BRD3-BD1) of the same compound?
Answer: Its EC50 is over 70000 nM.

Question: And the EC50 (BRD4-BD1)?
Answer: Its EC50 is over 70000 nM.

Question: And the EC50 (BRDT)?
Answer: Its EC50 is over 70000 nM.

Question: Which results are given for `CCCOc1cccc(-c2ccc3c(c2)[C@H](Nc2ccc(F)cc2OC)C[C@H](C)N3C(C)=O)c1` [compound 168]?
Answer: EC50 (BRD2-BD1): 35000 nM; EC50 (BRD2-BD2): 1200 nM; 2.1/2.2 (BRD2-BD2): 99; EC50 (BRD3-BD1): 45000 nM; EC50 (BRD4-BD1): > 57000 nM; EC50 (BRDT): 39000 nM

Question: `COc1cc(F)ccc1N[C@@H]1C[C@H](C)N(C(C)=O)c2ccc(-c3cc[nH]n3)cc21` [compound 170] was tested. Which EC50 (BRD2-BD1) did it give?
Answer: The EC50 was 3100 nM.

Question: What about the EC50 (BRD2-BD2) of the same compound?
Answer: Its EC50 is 140 nM.

Question: What about the 2.1/2.2 (BRD2-BD2) of the same compound?
Answer: Its 2.1/2.2 is 6.5.

Question: And the EC50 (BRD3-BD1)?
Answer: The EC50 was 14000 nM.

Question: What about the EC50 (BRD4-BD1) of the same compound?
Answer: The EC50 was over 26000 nM.

Question: And the EC50 (BRDT)?
Answer: The EC50 was 4900 nM.

Question: Which results are given for `CC(=O)N1c2ccc(-c3cc[nH]n3)cc2[C@H](Nc2ccccc2OC(F)(F)F)C[C@@H]1C` [compound 171]?
Answer: EC50 (BRD2-BD1): > 53000 nM; EC50 (BRD2-BD2): 440 nM; 2.1/2.2 (BRD2-BD2): 140; EC50 (BRD3-BD1): 23000 nM; EC50 (BRD4-BD1): 31000 nM; EC50 (BRDT): > 53000 nM

Question: Which EC50 (BRD2-BD1) does the source give for `CC(=O)N1c2ccc(-c3ccn(C)n3)cc2[C@H](Nc2ccccc2OC(F)(F)F)C[C@@H]1C` [compound 172] here?
Answer: Its EC50 is 8200 nM.

Question: What about the EC50 (BRD2-BD2) of the same compound?
Answer: The EC50 was 640 nM.

Question: And the 2.1/2.2 (BRD2-BD2)?
Answer: Its 2.1/2.2 is 6.3.

Question: And the EC50 (BRD3-BD1)?
Answer: The EC50 was 12000 nM.

Question: What about the EC50 (BRD4-BD1) of the same compound?
Answer: The EC50 was 17000 nM.

Question: What about the EC50 (BRDT) of the same compound?
Answer: The EC50 was 12000 nM.

Question: With `COc1cc(F)ccc1N[C@@H]1C[C@H](C)N(C(C)=O)c2ccc(-c3ccn(C)n3)cc21` [compound 173] as the compound, how does the EC50 (BRD2-BD1) read?
Answer: The EC50 was 1400 nM.

Question: What about the EC50 (BRD2-BD2) of the same compound?
Answer: The EC50 was 170 nM.

Question: What about the 2.1/2.2 (BRD2-BD2) of the same compound?
Answer: Its 2.1/2.2 is 8.2.

Question: What about the EC50 (BRD3-BD1) of the same compound?
Answer: The EC50 was 1500 nM.

Question: And the EC50 (BRD4-BD1)?
Answer: The EC50 was 3800 nM.

Question: And the EC50 (BRDT)?
Answer: The EC50 was 2000 nM.

Question: How did the EC50 (BRD2-BD1) turn out when `CC(=O)Nc1cccc(-c2ccc3c(c2)[C@H](Nc2ccc(C(=O)N(C)C)cc2)C[C@H](C)N3C(C)=O)c1` [compound 174] was run?
Answer: Its EC50 is 900 nM.

Question: What about the EC50 (BRD2-BD2) of the same compound?
Answer: The EC50 was 40 nM.

Question: And the 2.1/2.2 (BRD2-BD2)?
Answer: The 2.1/2.2 was 58.

Question: And the EC50 (BRD3-BD1)?
Answer: Its EC50 is 1100 nM.

Question: And the EC50 (BRD4-BD1)?
Answer: The EC50 was over 15000 nM.

Question: And the EC50 (BRDT)?
Answer: Its EC50 is 1200 nM.

Question: What does the source list for `CC(=O)Nc1cccc(-c2ccc3c(c2)[C@H](Nc2ccc(S(=O)(=O)N(C)C)cc2)C[C@H](C)N3C(C)=O)c1` [compound 175]?
Answer: EC50 (BRD2-BD1): 2700 nM; EC50 (BRD2-BD2): 100 nM; 2.1/2.2 (BRD2-BD2): 27; EC50 (BRD3-BD1): 1700 nM; EC50 (BRD4-BD1): 5500 nM; EC50 (BRDT): 2900 nM

Question: Which EC50 (BRD2-BD1) does the source give for `CC(=O)Nc1cccc(-c2ccc3c(c2)[C@H](Nc2ccc(C(=O)OC(C)(C)C)cc2)C[C@H](C)N3C(C)=O)c1` [compound 176] here?
Answer: Its EC50 is 10000 nM.

Question: What about the EC50 (BRD2-BD2) of the same compound?
Answer: Its EC50 is 750 nM.

Question: What about the 2.1/2.2 (BRD2-BD2) of the same compound?
Answer: Its 2.1/2.2 is 30.

Question: And the EC50 (BRD3-BD1)?
Answer: Its EC50 is 8500 nM.

Question: What about the EC50 (BRD4-BD1) of the same compound?
Answer: The EC50 was 16000 nM.

Question: And the EC50 (BRDT)?
Answer: Its EC50 is 13000 nM.
